From patent US5395827A, “ω-[2-(phosphonoalkyl)phenyl]-2-aminoalkanoic acids as antagonists of excitatory amino acid receptors” (priority 1993, dated 1995)

Legend:
NMDA = conditions: U.S. Pat. No. 4,657,899; cited from earlier work
kainate receptors = conditions: U.S. Pat. No. 4,657,899, Table I on column 13; cited from earlier work
PTZ-induced seizures = assay: Protection against pentylenetetrazole (PTZ)-induced seizures; assay type: in vivo, mouse (male CF-1); conditions: for ED50: Mus musculus, ip, 0.5 h, i.p.; for ED50 / ED50 against PTZ-induced seizures, i.c.v.: 30 min before s.c. PTZ 85 mg/kg
Method: Animals were then placed in individual observation cages and monitored for 30 min for the appearance of clonic convulsions. Failure to observe a clonic convulsion lasting at least 5 sec during the observation period was considered evidence of anticonvulsant activity.
PTZ seizure studies were performed as described in the text.

[1] = target: kainic acid (KA) receptor; assay: Inhibition of KA-induced currents in rat brain mRNA-injected Xenopus oocytes; assay type: cell-based; conditions: for Ki, inhibition of KA-induced currents: Table I, Xenopus oocytes injected with rat brain mRNA, IC50 converted by Cheng-Prusoff equation; for Ki: read-out: Ki values (Table I)
Method: (§1) Defolliculated oocytes obtained from Xenopus laevis females were injected with 30-75 ng of poly (A^+) mRNA obtained from 21-day old male Sprague-Dawley rats. Oocytes are placed individually in […] of antibiotic-supplemented modified Barthes solution (MBS, containing in mM: NaCl, 88; KCl, 1.0; NaHCO3, 2.4; HEPES, 10; MgSO4, 0.82; Ca(NO3)2, 0.33) in 96-well sterile plates and cultured for 48-120 hours prior to experimentation. Oocytes are inspected every 24 hours at which time the bathing solution is replaced with fresh MBS.
(§2) For electrophysiological studies, oocytes are positioned in a small recording chamber ([…]) and superfused with antibiotic-free MBS supplemented with CaCl2 (final concentration=1.4 mM). For NMDA studies, MgSO4 is replaced with NaSO4 (0.55 mM). Oocytes are impaled with a single glass microelectrode, voltage-clamped at -60 to -70 mV, and perfused by gravity feed at a rate of 3-5 ml/min at room temperature. Drugs are dissolved in the perfusate (pH adjusted to 7.3-7.4) and perfused for 1-2 min or until the response has reached a plateau, followed by a 4 min perfusion in the absence of drug(s). Antagonists are coperfused with agonists. MBS used in NMDA assays is prepared from "glycine-free", deionized water.
(§3) Potencies to inhibit kainic acid-, AMPA- and NMDA/glycine-induced currents are determined from concentration-response curves. IC50 values and Hill coefficients are determined by analysis of indirect Hill plots. IC50 values are converted to Ki values for comparison purposes using the Cheng-Prusoff equation.

AMPA receptor = assay: Inhibition of AMPA-induced currents in rat brain mRNA-injected Xenopus oocytes; assay type: cell-based; conditions: Table I; Xenopus oocytes injected with rat brain mRNA; IC50 converted by Cheng-Prusoff equation
Method: as §1, §2, §3

[2] = test system: choline acetyltransferase (ChAT), marker for striatal cholinergic interneurons; assay: Kainic acid-induced striatal toxicity, choline acetyltransferase (ChAT) activity; assay type: in vivo, rat (male Sprague-Dawley)
Method: (§4) Kainic acid-induced lesion studies were performed using rats (male Sprague-Dawley, 200-250 g, Harlan Industries). Animals were anesthetized with Chloropent (1.5 ml/kg) and a cannula was inserted into the corpus striatum at the coordinates A 0.8, V 4.3, L 3.0 (bregma=0) using standard stereotaxic procedures. Compounds were dissolved in dH2 O and neutralized using dilute NaOH, and administered over a period of 2 min in a final volume of […]. Following an additional 2 min the cannula was withdrawn, the incision closed with woundclips, and the animals returned to their home cage for a 3 day recovery period. Kainic acid (10 nmoles) was used to induce striatal lesions. Compound XX (300 nmoles) was coadministered with kainic acid.
(§5) Following decapitation, the corpus striatum ipsiand contralateral to the injection were removed, immediately frozen on dry ice, and stored at -80° C. until assayed. The activities of choline acetyltransferase (ChAT) and glutamic acid decarboxylase (GAD), markers for striatal cholinergic and GABAergic interneurons, respectively, were determined using standard procedures to assess the extent of the lesion.
(§6) Ka-induced lesions were performed as described in the text. The results are expressed as the percentage of enzyme activity in the ipsilateral (injected) striatum relative to enzyme activity in the contralateral (uninjected) striatum. The values represent the mean+standard deviation of 4 (Example I) or 12 (vehicle) determinations.

[3] = test system: glutamic acid decarboxylase (GAD), marker for striatal GABAergic interneurons; assay: Kainic acid-induced striatal toxicity, glutamic acid decarboxylase (GAD) activity; assay type: in vivo, rat (male Sprague-Dawley)
Method: as §4, §5, §6

[4] = coadministered (300 nmoles) with kainic acid (10 nmoles), intrastriatal, 3 day recovery, mean+standard deviation of 4
[5] = coadministration of kainic acid with Example I
[6] = intrastriatal injection of kainic acid alone (10 nmoles)

Row | SMILES | Ki, inhibition of KA-induced currents [1] [µM] | Ki (AMPA receptor) [µM] | Ki [1] [µM] | further results
1 | NC(Cc1ccccc1CCP(=O)(O)O)C(=O)O (stereo not drawn) [2-amino-3-[2-(2-phosphonoethyl)phenyl]propanoic acid] |  |  |  | NMDA antagonism (in words) (NMDA): antagonists of NMDA; binding affinity for kainate receptors (in words) (kainate receptors): very low binding affinity
2 | NC(Cc1ccccc1CCCP(=O)(O)O)C(=O)O (stereo not drawn) [2-amino-3-[2-(3-phosphonopropyl)phenyl]propanoic acid] |  |  |  | NMDA antagonism (in words) (NMDA): antagonists of NMDA; binding affinity for kainate receptors (in words) (kainate receptors): very low binding affinity
3 | NC(Cc1ccccc1CP(=O)(O)O)C(=O)O (stereo not drawn) [2-amino-3-[2-phosphonomethylphenyl]propanoic acid] |  |  |  | NMDA antagonism (in words) (NMDA): antagonists of NMDA; binding affinity for kainate receptors (in words) (kainate receptors): very low binding affinity
4 | NC(CCCc1ccccc1CP(=O)(O)O)C(=O)O (stereo not drawn) [2-amino-5-[2-phosphonomethylphenyl]pentanoic acid] |  |  |  | NMDA antagonism (in words) (NMDA): antagonists of NMDA; binding affinity for kainate receptors (in words) (kainate receptors): very low binding affinity
5 | O=C(O)C1CN(CCCP(=O)(O)O)CCN1 (stereo not drawn) [CPP, reference compound] |  |  |  | ED50 (PTZ-induced seizures): 7.3 mg/kg; ED50 against PTZ-induced seizures, i.c.v. (PTZ-induced seizures; i.c.v.): 0.15 nmol
6 | O=c1[nH]c2cc([N+](=O)[O-])c([N+](=O)[O-])cc2[nH]c1=O [DNQX, reference compound] | 0.1 | 0.25 |  | 
7 | Cc1ccc(CCP(=O)(O)O)c(C[C@H](N)C(=O)O)c1 [Example 1, 5-Methyl-2-(2-phosphonoethyl)phenylalanine] | 11 | 13 | < 100 | ChAT, % Activity of Contralateral Striatum [2, 4]: 98 ± 6%; reduction in ChAT activity [2, 5]: 2%; ED50 (PTZ-induced seizures): 98 mg/kg; potency relative to CPP against PTZ-induced seizures (PTZ-induced seizures; i.c.v.): ~2 times; ED50 against PTZ-induced seizures, i.c.v. (PTZ-induced seizures; i.c.v.): 0.09 nmol; protection against PTZ-induced seizures (in words) (PTZ-induced seizures; mouse, in vivo): dose-dependent protection against PTZ-induced seizures; effect against PTZ-induced seizures following systemic administration (in words) (PTZ-induced seizures; systemic (i.p.) administration, compared with CPP): effective following systemic administration, but was less potent than CPP; GAD, % Activity of Contralateral Striatum [3, 4]: 88 ± 17%; reduction in GAD activity [3, 5]: 12%
8 | CCc1ccc(CCP(=O)(O)O)c(C[C@H](N)C(=O)O)c1 [Example 2, 5-Ethyl-2-(2-phosphonoethyl)phenylalanine] | 17 | 50 | < 100 | 
9 | N[C@@H](Cc1cc(Br)ccc1CCP(=O)(O)O)C(=O)O [Example 3, 5-Bromo-2-(2-phosphonoethyl)phenylalanine] | 10 | 61 | < 100 | 
10 | N[C@@H](Cc1cc(Cl)ccc1CCP(=O)(O)O)C(=O)O [Example 4, 5-Chloro-2-(2-phosphonoethyl)phenylalanine] | 15 | 48 | < 100 | 
11 | N[C@@H](Cc1cc(F)ccc1CCP(=O)(O)O)C(=O)O [Example 5, 5-Fluoro-2-(2-phosphonoethyl)phenylalanine] | 68 | 167 | < 100 | 
12 | N[C@@H](Cc1cc(I)ccc1CCP(=O)(O)O)C(=O)O [Example 6, 5-Iodo-2-(2-phosphonoethyl)phenylalanine] | 3.6 | 16 | < 100 | 
13 | Cc1cc(C)c(CCP(=O)(O)O)c(C[C@H](N)C(=O)O)c1 [Example 7, 3,5-Dimethyl-2-(2-phosphonoethyl)phenylalanine] | 12 | 39 |  | 
14 | CC(C)(C)c1ccc(CCP(=O)(O)O)c(C[C@H](N)C(=O)O)c1 [Example 10, 5-t-Butyl-2-(2-phosphonoethyl)phenylalanine] | 29 |  |  | 
15 | N[C@@H](Cc1cc(-c2ccccc2)ccc1CCP(=O)(O)O)C(=O)O [Example 11, 5-Phenyl-2-(2phosphonoethyl)-phenylalanine] | 76 |  | < 100 | 
16 | Cl.N[C@@H](Cc1cc(C2CCCCC2)ccc1CCP(=O)(O)O)C(=O)O [Example 12, 5-Cyclohexyl-2-(2-phosphonoethyl) phenylalanine hydrochloride] | 139 |  |  | 
17 | Cc1cccc(C[C@H](N)C(=O)O)c1CCP(=O)(O)O [Example 15, 3-Methyl-2-(2-phosphonoethyl)phenylalanine] | > 100 |  |  | 
18 | Cl.N[C@@H](Cc1cccc(-c2ccccc2)c1CCP(=O)(O)O)C(=O)O [Example 16, 3-Phenyl-2-(2-phosphonoethyl) phenylalanine hydrochloride] | 83 |  |  | 
19 | CCOC(=O)[C@@H](N)Cc1cc(C)ccc1CCP(=O)(O)O [Example 17, 5-Methyl-2-(2-phosphonoethyl)phenylalanine ethyl ester] | > 100 |  |  | 
20 | N[C@@H](Cc1ccc([N+](=O)[O-])cc1CCP(=O)(O)O)C(=O)O [Example 22, 4-Nitro-2-(2-phosphonoethyl)phenylalanine] | 13 |  |  | 
21 | C=C(C)[C@H]1CN[C@H](C(=O)O)[C@H]1CC(=O)O [kainic acid, reference compound] |  |  |  | reduction in ChAT activity [2, 6]: 68%; reduction in GAD activity [3, 6]: 55%
